Experimental data from US5929249A, “Substituted imidazolyl-alkyethio-aldanoic acids” (SmithKline Beecham Corporation, priority 1992, dated 1999).

Test system: pressor response to angiotensin II
Test: Inhibition of pressor response to angiotensin II in conscious rats
Format: in vivo
Conditions: Rattus norvegicus, i.v., intravenous angiotensin II 250 mg/kg [sic], change in mean arterial pressure, read-out: IC50 (dose of compound needed to produce 50% inhibition of the control response to angiotensin II)
Experimental: Angiotensin II antagonist activity of the compounds of Formula (I) is assessed by in vitro and in vivo methods. In vitro antagonist activity is determined by the ability of the compounds to compete with ^125 I-angiotensin II for binding to vascular angiotensin II receptors and by their ability to antagonize the contractile response to angiotensin II in the isolated rabbit aorta. In vivo activity is evaluated by the efficacy of the compounds to inhibit the pressor response to exogenous angiotensin II in conscious rats and to lower blood pressure in a rat model of renin dependent hypertension.
Rats are prepared with indwelling femoral arterial and venous catheters and a stomach tube (Gellai et al., Kidney Int. 15:419, 1979). Two to three days following surgery the rats are placed in a restrainer and blood pressure is continuously monitored from the arterial catheter with a pressure transducer and recorded on a polygraph. The change in mean arterial pressure in response to intravenous injections of […] angiotensin II is compared at various time points prior to and following the administration of the compounds intravenously or orally at doses of 0.1 to 300 mg/kg. The dose of compound needed to produce 50% inhibition of the control response to angiotensin II (IC50) is used to estimate the potency of the compounds. […]

## CCCCc1ncc(CSc2ccccc2C(=O)O)n1Cc1ccc(C(=O)O)cc1 [S-[(2-n-Butyl-1-{(4-carboxyphenyl)methyl}-1H-imidazol-5-yl)methyl]thiosalicyclic Acid]
  ED50: ~0.5 mg/kg
